# Paper PMC9749936, “Synthesis and structure–activity relationship studies of N-terminal analogues of the lipopeptide antibiotics brevicidine and laterocidine” (RSC Medicinal Chemistry, 2022)
# Read-outs that look alike come from different tables or passages of the source. Bridge positions count the residues as written; N and C are the ends. Square brackets hold non-standard residues; d marks the D form. Peptide text beside a SMILES is read from it. * marks the point of attachment. ξ: configuration not given here. Octanoyl(7-Me) = CC(C)CCCCCC(=O)*; Hexanoyl(4ξ-Me) = CCC(C)CCC(=O)*; Myristoyl = CCCCCCCCCCCCCC(=O)*; dOrn = NCCC[C@@H](N)C(=O)O; X1 = CC[C@H](C)CCCCC(=O)*; Octanoyl = CCCCCCCC(=O)*; Orn = NCCC[C@H](N)C(=O)O; Dab = NCC[C@H](N)C(=O)O
# Columns and labels:
# [1] = tested on: E. coli ATCC 25922; type: cell-based, Escherichia coli
# Description: (§1) The minimum inhibitory concentrations (MICs) of brevicidine and laterocidine analogues were determined against a panel of clinically relevant ESKAPE pathogens; Escherichia coli (E. coli), Klebsiella pneumoniae (K. pneumoniae), Acinetobacter baumannii (A. baumannii), Pseudomonas aeruginosa (P. aeuroginosa) and Staphylococcus aureus (S. aureus), which cause the majority of nosocomial infections in the United States.[16] […] In this resistance mechanism, the polymyxin target (lipid A) is modified, reducing binding affinity. For this reason, a strain of colistin-resistant E. coli carrying the mcr-1 gene was also included in the panel. […]
# (§2) IV. Antimicrobial testing
# (§3) All minimum inhibitory concentrations (MICs) were determined according to Clinical and Standards Laboratory Institute (CLSI) guidelines. Blood agar plates were inoculated with glycerol stocks of E. coli ATCC 25922, K. pneumoniae ATCC 13883, A. baumannii ATCC 17961, P. aeruginosa PAO1 and S. aureus USA300. The inoculated agar plates were then incubated for 16 h at 37 °C . Individually grown colonies were subsequently used to inoculate 5 mL aliquots of TSB that were then incubated at 37 °C with shaking at 220 rpm. E. coli 25922 MCR-1 glycerol stock was used to inoculate 5 mL of TSB supplemented with kanamycin that was then incubated for 16 h at 37 °C with shaking at 220 rpm. The next day the culture was diluted 100 fold in TSB supplemented with kanamycin and incubated at 37 °C with shaking at 220 rpm. In parallel, the lipopeptide antibiotics DMSO stocks to be assessed were serially diluted with MHB in polypropylene 96-well plates (50 µL in each well). Colistin sulfate stocks were dissolved in water before being diluted with MHB. Aliquots of the inoculated TSB were incubated until an OD600 of around 0.5 was reached. The bacterial suspensions were then diluted with MHB (2 x 10^5 CFU mL-1) and added to the microplates containing the test compounds (50 µL to each well). The well-plates were sealed with an adhesive membrane and after 18 h of incubation at 37 °C with shaking at 600 rpm, the wells were visually inspected for bacterial […]
# (§4) growth. MIC values reported are based on three technical replicates and defined as the lowest concentration of the compound that prevented visible growth of bacteria. […]
# (§5) The values obtained from a read-out at 415 nm were corrected for background (negative control) and transformed to a percentage relative to the positive control.
# (§6) VI. HPLC and HRMS analysis of peptides
# (§7) Peptide Name Chemical Calcd Mass found Calcd Overall […]
# [2] = tested on: E. coli ATCC 25922 MCR-1; type: cell-based, Escherichia coli
# Description: as §1
# Colisitin sulfate was purchased from Activate Scientific. Kanamycin monosulfate was purchased from MP Biomedicals. E. coli ATCC 25922, S. aureus USA300 (ATCC BAA1717), K. pneumoniae ATCC 13883 and A. baumannii ATCC 17961 belong to the American Type Culture Collection (ATCC). P. aeruginosa PAO1 was kindly provided by L.H.C. Quarles Van Ufford, Utrecht University, Utrecht, The Netherlands. E. coli ATCC 25922 MCR-1 was transfected in house using the pGDP2-MCR1 plasmid kindly provided by Yong-Xin Li, The University of Hong Kong, Hong Kong, China. Sheep blood agar plates (Ref. PB5039A) were purchased from Thermo Scientific. Tryptic soy broth (Ref. 02-200-500) was purchased from Scharlab. Mueller-Hinton broth (Ref. X927.1) was purchased from Carl Roth. Polypropylene 96-wells plates (Ref. 3879) were purchased from Corning. […]
# (10.0 mL). 2-Chlorotrityl (CT) chloride resin (2.00 g, 0.81 mmol g-1) and DIPEA (420 µL, 2.40 mmol) were added. […]
# A gradient […]
# method for C14 - C16 laterocidine was employed, starting at 100% solvent A for 2 min, ramping up to 70 % solvent B over 45 min, ramping up to 100% solvent B over 1 min, remaining there for 6 min before ramping down to 100% solvent A and remaining there for 5 min. High resolution mass spectrometry (HRMS) spectra of brevicidine peptides were recorded by Analytical Services and Environmental Projects (ASEP) at Queen’s University Belfast on a Waters LCT Premier ToF mass spectrometer using the electrospray ionisation (ESI) technique. HRMS spectra of laterocidine peptides were performed on a Thermo Scientific Dionex UltiMate 3000 HPLC system with a Phenomenex Kinetex C18 (2.6 µm, 2.1 x 150 mm) column at 35 °C and equipped with a diode array detector. The following solvent system, at a flow rate of 0.3 mL/min, was used: solvent A = 0.1% formic acid in water, solvent B = 0.1% formic acid in acetonitrile. A gradient method was employed, starting at 95 % solvent A and 5 % solvent B for 1 min, ramping up to 95 % solvent B over 9 min, ramping up to 98 % solvent B over 1 min, remaining there for 1 min before ramping back down to 95 % solvent A over 2 min and remaining there for 1 min.
# The system was connected to a Bruker micrOTOF-Q II mass spectrometer (ESI ionization) calibrated internally with sodium […]
# as §2
# as §3, with “MHB.” for “MHB. Aliquots of the inoculated TSB were incubated until an OD600 of around 0.5 was reached. The bacterial suspensions were then diluted with MHB (2 x 10^5 CFU mL-1) and added to the microplates containing the test compounds (50 µL to each well). The well-plates were sealed with an adhesive membrane and after 18 h of incubation at 37 °C with shaking at 600 rpm, the wells were visually inspected for bacterial”
# [3] = tested on: K. pneumoniae ATCC 13883; type: cell-based, Klebsiella pneumoniae
# Description: as §1, §2, §3, §4, §5, §6, §7
# [4] = tested on: A. baumannii ATCC 17961; type: cell-based, Acinetobacter baumannii
# Description: as §1, §2, §3, §4, §5, §6, §7
# [5] = tested on: P. aeruginosa PAO1; type: cell-based, Pseudomonas aeruginosa
# Description: as §1, §2, §3, §4, §5, §6, §7
# [6] = tested on: S. aureus USA300; type: cell-based, Staphylococcus aureus
# Description: as §1, §2, §3, §4, §5, §6, §7
# [7] = tested on: Sheep red blood cells; type: cell-based
# Description: Having ascertained the antimicrobial activity of all synthetic peptides against a panel of ESKAPE pathogens, we next assessed their mammalian toxicity with hemolytic assays using sheep red blood cells. The % hemolysis for all peptides at 64 μg mL^−1 was determined, with the hemolysis induced by the surfactant 0.1% Triton X-100 taken as 100%. […] Hemolysis was <1% for all analogues with a C8 chain or shorter, including the strongest antibacterial peptide C8-Lat (22). Hemolytic activity increased up to C14 (>50% for C14-Lat) and then decreased at longer chain lengths, perhaps due to decreased solubility of peptides or aggregation. […]
# Phosphate-Buffered Saline (PBS) containing 0.002% Tween20 (buffer) five times. Then, the red blood cells were normalized to obtain a positive control read-out between 2.5 and 3.0 at 415 nm to stay within the linear range with the maximum sensitivity. A serial dilution of the compounds (128 – 1 µg/mL, 75 µL) was prepared in a 96-well polypropylene plate. The outer border of the plate was filled with 75 µL buffer. Each plate contained a positive control (0.1% Triton-X final concentration, 75 µL) and a negative control (buffer, 75 µL) in triplicate. The normalized blood cells (75 µL) were added and the plates were incubated at 37 °C for 1 h while shaking at 500 rpm. A flat-bottom polystyrene plate with 100 µL buffer in each well was prepared. After incubation, the plates were centrifuged (800 g for 5 min at room temperature) and 25 µL of the supernatant was transferred to their respective wells in the flat-bottom plate. The values obtained from a read-out at 415 nm were corrected for background (negative control) and transformed to a percentage relative to the positive control. […]
# [8] = CLSI broth microdilution in MHB, 18 h at 37 °C, visual inspection, three technical replicates
# [9] = colistin-resistant strain carrying mcr-1, CLSI broth microdilution in MHB, 18 h at 37 °C, visual inspection, three technical replicates
# [10] = red cells of sheep, 1 h, 64 μg mL^−1
SMILES,"Antimicrobial activity (MIC) E. coli ATCC 25922 ([1]; CLSI broth microdilution in MHB, polypropylene 96-well plates, 18 h at 37 °C, visual inspection, three technical replicates) [µg/mL]","Antimicrobial activity (MIC) E. coli ATCC 25922 MCR-1 ([2]; ATCC 25922, 18 h) [µg/mL]","Antimicrobial activity (MIC) K. pneumoniae ATCC 13883 [3, 8] [µg/mL]","Antimicrobial activity (MIC) A. baumannii ATCC 17961 [4, 8] [µg/mL]","Antimicrobial activity (MIC) P. aeruginosa PAO1 [5, 8] [µg/mL]","Antimicrobial activity (MIC) S. aureus USA300 [6, 8] [µg/mL]","% Hemolytic activity, sheep red blood cells ([7]; peptide at 64 μg mL^−1, 1 h at 37 °C in PBS with 0.002% Tween20, read-out at 415 nm, relative to 0.1% Triton X-100 taken as 100%, triplicate) [%]","Antimicrobial activity (MIC) E. coli ATCC 25922 ([1]; ATCC 25922, 18 h) [µg/mL]","Antimicrobial activity (MIC) E. coli ATCC 25922 MCR-1 [2, 9] [µg/mL]","Antimicrobial activity (MIC) K. pneumoniae ATCC 13883 ([3]; ATCC 13883, 18 h) [µg/mL]","Antimicrobial activity (MIC) A. baumannii ATCC 17961 ([4]; ATCC 17961, 18 h) [µg/mL]","Antimicrobial activity (MIC) P. aeruginosa PAO1 ([5]; PAO1, 18 h) [µg/mL]","Antimicrobial activity (MIC) S. aureus USA300 ([6]; USA300, 18 h) [µg/mL]","% Hemolytic activity, sheep red blood cells [7, 10] [%]"
"CC[C@H](C)CCCCC(=O)N[C@@H](CCN)C(=O)N[C@H](C(=O)N[C@@H](CCN)C(=O)N[C@H]1CCNC(=O)[C@H]([C@@H](C)O)NC(=O)[C@H](CCN)NC(=O)[C@H](CCN)NC(=O)[C@H](CC(C)C)NC(=O)[C@@H](CC(C)C)NC(=O)[C@H](CCN)NC1=O)[C@@H](C)O [Colistin, colistin, reference compound] (X1-[Dab]T[Dab][Dab][Dab][dL]L[Dab][Dab]T; lactam 4-C (inferred); N-terminus assumed)",0.5,8,0.5,≤0.25,4,>32,<0.1,–,–,–,–,–,–,–
"CCC(C)CCC(=O)N[C@H](CC(N)=O)C(=O)N[C@H](Cc1ccc(O)cc1)C(=O)N[C@H](Cc1c[nH]c2ccccc12)C(=O)N[C@H](CCCN)C(=O)N[C@@H](CCCN)C(=O)NCC(=O)N[C@H](CCCN)C(=O)N[C@@H](Cc1c[nH]c2ccccc12)C(=O)N[C@@H]1C(=O)N[C@@H]([C@@H](C)CC)C(=O)NCC(=O)N[C@@H](CO)C(=O)O[C@@H]1C (stereo partly drawn) [Compound 1, brevicidine] ({Hexanoyl(4ξ-Me)}-[dN][dY][dW][dOrn][Orn]G[dOrn]WTIGS; ester 9-C)",–,–,–,–,–,–,–,4,4,2,4,8,>32,0.8
"CC[C@H](C)[C@@H]1NC(=O)[C@@H](NC(=O)[C@H](Cc2c[nH]c3ccccc23)NC(=O)[C@@H](CCCN)NC(=O)CNC(=O)[C@H](CCCN)NC(=O)[C@@H](CCCN)NC(=O)[C@@H](Cc2c[nH]c3ccccc23)NC(=O)[C@@H](Cc2ccc(O)cc2)NC(=O)[C@@H](CO)NC(=O)CCCCCC(C)C)[C@@H](C)OC(=O)CNC(=O)CNC(=O)[C@H](CC(N)=O)NC1=O [Compound 2, laterocidine] ({Octanoyl(7-Me)}-[dS][dY][dW][dOrn][Orn]G[dOrn]WTINGG; ester 9-C; N-terminus assumed)",–,–,–,–,–,–,–,2,2,2 to 4,2,4,>32,0.4
CCCCCCCC(=O)N[C@H](CO)C(=O)N[C@H](Cc1ccc(O)cc1)C(=O)N[C@H](Cc1c[nH]c2ccccc12)C(=O)N[C@H](CCCN)C(=O)N[C@@H](CCCN)C(=O)NCC(=O)N[C@H](CCCN)C(=O)N[C@@H](Cc1c[nH]c2ccccc12)C(=O)N[C@@H]1C(=O)N[C@@H]([C@@H](C)CC)C(=O)N[C@@H](CC(N)=O)C(=O)NCC(=O)NCC(=O)O[C@@H]1C [Compound 22] (Octanoyl-[dS][dY][dW][dOrn][Orn]G[dOrn]WTINGG; ester 9-C),–,–,–,–,–,–,–,2,2,2,4,2,>32,–
CCCCCCCCCCCCCC(=O)N[C@H](CO)C(=O)N[C@H](Cc1ccc(O)cc1)C(=O)N[C@H](Cc1c[nH]c2ccccc12)C(=O)N[C@H](CCCN)C(=O)N[C@@H](CCCN)C(=O)NCC(=O)N[C@H](CCCN)C(=O)N[C@@H](Cc1c[nH]c2ccccc12)C(=O)N[C@@H]1C(=O)N[C@@H]([C@@H](C)CC)C(=O)N[C@@H](CC(N)=O)C(=O)NCC(=O)NCC(=O)O[C@@H]1C [Compound 25] (Myristoyl-[dS][dY][dW][dOrn][Orn]G[dOrn]WTINGG; ester 9-C),–,–,–,–,–,–,–,8,8,8,2,8,16,–
